Data on 15 molecules can be found in patent publication US20100179059A1, “Fungicidal Mixtures” (BASF SE, priority 2007, published 2010).

Where two headings read alike, the source gives them in different places.

Common to all, as to assay type: cell-based
The test system of assay [1] is Septoria tritici. Briefly: Activity against leaf blotch on wheat caused by Septoria tritici (microtiter plate). The conditions noted are these: active compound alone, 7 days after inoculation.
In assay [2] the test system is Botrytis cinerea. Briefly: Activity against the grey mold Botrytis cinerea in the microtiterplate test.
In assay [3] the test system is Pyricularia oryzae. The conditions noted are these: active compound alone, 7 days after inoculation.
Where [4] appears, read: Botrytis cinerea, 168 h, active compound alone, 0.063 ppm, 7 days after inoculation, read-out: Observed efficacy.
Where [5] appears, read: Botrytis cinerea, 168 h, active compound alone, 7 days after inoculation, read-out: Observed efficacy.

In turn, `Fc1ccc([C@]2(Cn3cncn3)O[C@H]2c2ccccc2Cl)cc1` (racemic) [Epoxiconazol, (2RS,3SR)-1-[3-(2-chlorophenyl)-2,3-epoxy-2-(4-fluorophenyl)propyl]-1H-1,2,4-triazole, reference compound] yielded an Observed efficacy in assay [1] (0.063 ppm) of 66%. Besides, in assay [2] (Botrytis cinerea, 168 h, active compound alone, 0.25 ppm, 7 days after inoculation, read-out: Observed efficacy), the inhibition of growth at 0.25 ppm is 37%.

Turning to `CC(C)OC(=O)N[C@H](C(=O)N[C@H](C)c1nc2ccc(F)cc2s1)C(C)C` [Benthivalicarb, isopropyl {(S)-1-[(1R)-1-(6-fluorobenzothiazol-2-yl)ethylcarbamoyl]-2-methylpropyl}carbamate, reference compound], the inhibition of growth at 0.063 ppm in assay [2] (Botrytis cinerea, 168 h, read-out: Observed efficacy) is 0%.

Turning to `COC(=O)Nc1nc2ccccc2[nH]1` [Carbendazim, methyl (1H-benzoimidazol-2-yl)-carbamate, reference compound], the Observed efficacy in assay [3] (0.25 ppm) came out at 30%. Besides, in assay [2] (setting [4]), the inhibition of growth at 0.063 ppm stood at 74%.

On to `OC(c1cccnc1)c1c(-c2ccc(Cl)cc2Cl)noc1-c1cccc(Cl)c1` (centres unmarked) [Cmpd No. 4, 5-(3-Chlorophenyl)-3-(2,4-dichlorophenyl)-4-[(3-pyridyl)hydroxymethyl]-isoxazole], for which, in assay [2] (setting [5]), the inhibition of growth at 0.001 ppm is 2%.

As to `CC(C)(C)c1onc(-c2ccc(Cl)cc2Cl)c1C(O)c1cccnc1` (centres unmarked) [Cmpd No. 7, 3-(2,4-Dichlorophenyl)-5-(1,1-dimethylethyl)-4-[(3-pyridyl)hydroxymethyl]-isoxazole], the Observed efficacy in assay [3] (0.001 ppm) came to 2%.

Turning to `OC(c1cccnc1)c1c(-c2ccc(Cl)cc2)noc1-c1ccc(F)cc1` (centres unmarked) [Cmpd No. 88, 3-(4-Chlorophenyl)-5-(4-fluorophenyl)-4-[(3-pyridyl)-hydroxymethyl]-isoxazole], the Observed efficacy in assay [3] (1 ppm) amounted to 3%.

For `OC(c1cccnc1)c1c(-c2ccc(F)cc2)noc1-c1ccccc1Cl` (centres unmarked) [Cmpd No. 90, 5-(2-Chlorophenyl)-3-(4-fluorophenyl)-4-[(3-pyridyl)-hydroxymethyl]-isoxazole], the Observed efficacy in assay [3] (0.000063 ppm) came to 6%; in assay [1] (0.00025 ppm), 9%. For the same molecule, in assay [2] (Botrytis cinerea, 168 h, active compound alone, 0.000004 ppm, 7 days after inoculation, read-out: Observed efficacy), the inhibition of growth at 4e-06 ppm came to 5%. For the same molecule, the inhibition of growth at 1.6e-05 ppm in assay [2] (Botrytis cinerea, 168 h, active compound alone, 0.000016 ppm, 7 days after inoculation, read-out: Observed efficacy) amounted to 5%. Moreover, in assay [2] (Botrytis cinerea, 168 h, active compound alone, 0.000063 ppm, 7 days after inoculation, read-out: Observed efficacy), the inhibition of growth at 6.3e-05 ppm stood at 1%. Besides, the inhibition of growth at 0.00025 ppm in assay [2] (setting [5]) was found to be 1%.

For the molecule `OC(c1cccnc1)c1c(-c2cc(F)cc(F)c2)noc1-c1ccc(Cl)cc1` (centres unmarked) [Cmpd No. 124, 5-(4-Chlorophenyl)-3-(3,5-difluorophenyl)-4-[(3-pyridyl)-hydroxymethyl]-isoxazole], in assay [2] (setting [5]), the inhibition of growth at 0.001 ppm turned out to be 1%.

In turn, `OC(c1cccnc1)c1c(-c2ccc(Cl)cc2F)noc1-c1ccccc1F` (centres unmarked) [Cmpd No. 144, 3-(4-Chloro-2-fluorophenyl)-4-[(3-pyridyl)-hydroxymethyl]-5-(2-fluorophenyl)-isoxazole] returned an Observed efficacy in assay [1] (0.016 ppm) of 16%. For the same molecule, in assay [2] (setting [5]), the inhibition of growth at 0.00025 ppm worked out at 4% and the inhibition of growth at 0.001 ppm worked out at 2%.

On to `OC(c1cccnc1)c1c(-c2ccc(F)cc2F)noc1-c1ccc(Cl)cc1F` (centres unmarked) [Cmpd No. 145, 3-(2,4-Difluorophenyl)-4-[(3-pyridyl)-hydroxymethyl]-5-(4-chloro-2-fluorophenyl)-isoxazole], for which the Observed efficacy in assay [3] (0.000063 ppm) was 10%. In assay [2] (setting [5]), the inhibition of growth at 0.001 ppm was 20%.

`OC(Cc1ccccc1Cl)(Cn1nc[nH]c1=S)C1(Cl)CC1` (centres unmarked) [Prothioconazol, 2-[2-(1-chlorocyclopropyl)-3-(2-chlorophenyl)-2-hydroxypropyl]-2,4-dihydro-[1,2,4]triazole-3-thione, reference compound]: in assay [2] (Botrytis cinerea, 168 h, active compound alone, 1 ppm, 7 days after inoculation, read-out: Observed efficacy), the inhibition of growth at 1 ppm stood at 46%.

For `COC(=O)N(OC)c1ccccc1COc1ccn(-c2ccc(Cl)cc2)n1` [Pyraclostrobin, reference compound], the Observed efficacy in assay [3] (0.016 ppm) amounted to 67%.

With `Cc1cc(C)nc(Nc2ccccc2)n1` [Pyrimethanil, 4,6-dimethylpyrimidin-2-ylphenylamine, reference compound], the Observed efficacy in assay [1] (16 ppm) is 38%. Further, the inhibition of growth at 0.063 ppm in assay [2] (setting [4]) turned out to be 5%.

Turning to “manganese ethylenebis(dithiocarbanate) zinc complex [Mancozeb]”, the Observed efficacy in assay [1] (4 ppm) is on record as 52%.

For “zinc propylenebis(dithiocarbamate) polymer [Propineb, reference compound]”, the Observed efficacy in assay [2] (active compound alone, 4 ppm, 7 days after inoculation) amounted to 32%.
